From patent publication US11311542B2, “Inhibitors of cyclin dependent kinase 7 (CDK7)” (Syros Pharmaceuticals, Inc., priority 2018, dated 2022)

Columns and labels:
HCC70 cells = experiment: Inhibition of cell proliferation (CyQUANT Direct), HCC70; type: cell-based, human; conditions: Homo sapiens, HCC70, 72-hour
Experimental: (§1) HCC70 and MB453 cells are cell lines derived from human triple negative breast cancer COV318 and COV504 cells are cell lines derived from human ovarian cancer. Representative compounds of the invention were tested at different concentrations (from 4 μM to 126.4 pM; 0.5 log serial dilutions) for their ability to inhibit the proliferation of each of these cell lines. Known CDK inhibitors dinaciclib or N-((1S,3R)-3-((5-chloro-4-(1H-indol-3-yl) pyrimidin-2-yl)amino)cyclohexyl)-5-((E)-4-(dimethylamino)but-2-enamido)picolinamide and triptolide were used as positive controls. Cells were seeded at approximately 2,000 cells/well and grown in ATCC-formulated RPMI-1640 Medium (ATCC 30-2001)+10% FBS. The cells were cultured at 37° C. in a humidified chamber in the presence of 5% CO2. Proliferation assays were conducted over a 72-hour time period. CyQUANT® Direct Cell Proliferation Assay (Life Technologies, Chicago, Ill. USA) was used to assess the anti-proliferative effects of the compounds following manufacturer's directions and utilizing the reagents supplied with the CyQUANT® Direct Cell kit.

MB453 cells = experiment: Inhibition of cell proliferation (CyQUANT Direct), MB453; type: cell-based, human; conditions: Homo sapiens, MB453, 72-hour
Experimental: as §1

COV504 cells = experiment: Inhibition of cell proliferation (CyQUANT Direct), COV504; type: cell-based, human; conditions: Homo sapiens, COV504, 72-hour
Experimental: as §1

COV318 cells = experiment: Inhibition of cell proliferation (CyQUANT Direct), COV318; type: cell-based, human; conditions: Homo sapiens, COV318, 72-hour
Experimental: as §1

CDK9/Cyclin T1 complex = CDK9/Cyclin T1 complex (Homo sapiens, UniProt P50750); experiment: CDK9 kinase inhibition assay (Caliper/LabChip EZ Reader)
Experimental: (§2) Compounds described herein were assayed for inhibition of CDK7, CDK9, CDK12, and CDK2 activity at Biortus Biosciences (Jiangyin, Jiangsu Province, P.R. of China) using kinase assays for each CDK developed with a Caliper/LabChip EZ Reader (Perkin Elmer, Waltham, Mass.).
(§3) Furthermore, the CDK9 inhibition assay used CDK9/Cyclin T1 complex (8 nM) and “5-FAM-CDK9tide” peptide substrate (2 μM, synthesized fluorophore-labeled peptide with the following sequence: 5-FAM-GSRTPMY-NH2 (SEQ ID NO:2) where 5-FAM is defined above and NH2 signifies a C-terminal amide) with 10 mM MgCl2 in the buffer composition listed above. The CDK12 inhibition assay used CDK12 (aa686-1082)/Cyclin K complex (50 nM) and “5-FAM-CDK9tide” (2 μM) as defined above, with 2 mM MgCl2 in the buffer composition above. Additionally, the CDK2 inhibition assay used CDK2/Cyclin E1 complex (0.5 nM) and “5-FAM-CDK7tide” (2 μM; defined above) with 2 mM MgCl2 in the buffer composition above.
(§4) The incubation period at 27° C. for each CDK inhibition assay was chosen such that the fraction of phosphorylated peptide product produced in each assay, relative to the total peptide concentration, was approximately 20% (±5%) for the uninhibited kinase (35 min. for CDK7, 35 min. for CDK2, 3 hr. for CDK12, 15 min. for CDK9).

[1] = molecular target: CDK12 (aa686-1082)/Cyclin K complex (Homo sapiens, UniProt Q9NYV4); experiment: CDK12 kinase inhibition assay (Caliper/LabChip EZ Reader)
CDK2/Cyclin E1 complex = CDK2/Cyclin E1 complex (Homo sapiens, UniProt P24941); experiment: CDK2 kinase inhibition assay (Caliper/LabChip EZ Reader)
[2] = molecular target: CDK7/Cyclin H/MAT1 complex (Homo sapiens, UniProt P50613); experiment: CDK7 kinase inhibition assay (Caliper/LabChip EZ Reader)
CDK7/Cyclin H/MAT1 complex, sequence (P50613 whole entry): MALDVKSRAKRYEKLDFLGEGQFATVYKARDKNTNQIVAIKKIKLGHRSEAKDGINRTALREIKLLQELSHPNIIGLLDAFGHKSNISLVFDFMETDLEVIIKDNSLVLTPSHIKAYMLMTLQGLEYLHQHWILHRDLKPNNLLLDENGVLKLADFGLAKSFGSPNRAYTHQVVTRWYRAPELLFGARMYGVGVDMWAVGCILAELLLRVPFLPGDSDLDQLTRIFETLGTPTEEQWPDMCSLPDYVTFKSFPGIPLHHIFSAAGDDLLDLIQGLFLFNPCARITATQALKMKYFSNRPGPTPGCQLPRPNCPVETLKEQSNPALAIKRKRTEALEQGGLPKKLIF
CDK7/Cyclin H/MAT1 complex, sequence (P51946 whole entry partner): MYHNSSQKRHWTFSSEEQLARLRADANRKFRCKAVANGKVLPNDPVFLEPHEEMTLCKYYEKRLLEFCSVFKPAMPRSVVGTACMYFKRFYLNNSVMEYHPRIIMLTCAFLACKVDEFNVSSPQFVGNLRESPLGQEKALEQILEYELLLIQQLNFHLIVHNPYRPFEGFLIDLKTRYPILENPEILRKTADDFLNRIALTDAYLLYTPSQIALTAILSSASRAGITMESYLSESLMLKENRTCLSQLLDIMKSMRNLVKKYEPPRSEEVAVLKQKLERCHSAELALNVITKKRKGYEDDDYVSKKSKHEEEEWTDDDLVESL
CDK7/Cyclin H/MAT1 complex, sequence (P51948 whole entry partner): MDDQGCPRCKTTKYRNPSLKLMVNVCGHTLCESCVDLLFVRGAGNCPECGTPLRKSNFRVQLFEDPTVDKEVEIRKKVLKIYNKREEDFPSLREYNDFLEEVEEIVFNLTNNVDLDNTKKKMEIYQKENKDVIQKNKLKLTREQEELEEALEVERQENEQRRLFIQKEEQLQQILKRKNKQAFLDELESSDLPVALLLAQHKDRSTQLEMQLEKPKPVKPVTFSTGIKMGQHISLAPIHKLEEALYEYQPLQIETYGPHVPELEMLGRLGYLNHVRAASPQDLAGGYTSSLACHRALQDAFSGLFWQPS
Experimental: as §2, §3, §4

CDK9/Cyclin T1 complex, sequence (P50750 whole entry, the tested form may be a part): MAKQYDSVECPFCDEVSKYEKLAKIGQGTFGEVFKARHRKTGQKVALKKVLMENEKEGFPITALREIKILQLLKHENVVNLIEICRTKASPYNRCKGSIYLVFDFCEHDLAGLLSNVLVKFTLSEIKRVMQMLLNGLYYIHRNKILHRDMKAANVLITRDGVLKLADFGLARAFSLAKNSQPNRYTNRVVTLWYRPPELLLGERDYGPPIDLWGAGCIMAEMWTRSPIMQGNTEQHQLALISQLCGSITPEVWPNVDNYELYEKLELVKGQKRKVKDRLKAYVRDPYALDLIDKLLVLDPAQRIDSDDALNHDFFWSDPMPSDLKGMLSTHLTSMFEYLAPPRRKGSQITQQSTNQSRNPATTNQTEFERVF
CDK9/Cyclin T1 complex, sequence (O60563 whole entry partner, the tested form may be a part): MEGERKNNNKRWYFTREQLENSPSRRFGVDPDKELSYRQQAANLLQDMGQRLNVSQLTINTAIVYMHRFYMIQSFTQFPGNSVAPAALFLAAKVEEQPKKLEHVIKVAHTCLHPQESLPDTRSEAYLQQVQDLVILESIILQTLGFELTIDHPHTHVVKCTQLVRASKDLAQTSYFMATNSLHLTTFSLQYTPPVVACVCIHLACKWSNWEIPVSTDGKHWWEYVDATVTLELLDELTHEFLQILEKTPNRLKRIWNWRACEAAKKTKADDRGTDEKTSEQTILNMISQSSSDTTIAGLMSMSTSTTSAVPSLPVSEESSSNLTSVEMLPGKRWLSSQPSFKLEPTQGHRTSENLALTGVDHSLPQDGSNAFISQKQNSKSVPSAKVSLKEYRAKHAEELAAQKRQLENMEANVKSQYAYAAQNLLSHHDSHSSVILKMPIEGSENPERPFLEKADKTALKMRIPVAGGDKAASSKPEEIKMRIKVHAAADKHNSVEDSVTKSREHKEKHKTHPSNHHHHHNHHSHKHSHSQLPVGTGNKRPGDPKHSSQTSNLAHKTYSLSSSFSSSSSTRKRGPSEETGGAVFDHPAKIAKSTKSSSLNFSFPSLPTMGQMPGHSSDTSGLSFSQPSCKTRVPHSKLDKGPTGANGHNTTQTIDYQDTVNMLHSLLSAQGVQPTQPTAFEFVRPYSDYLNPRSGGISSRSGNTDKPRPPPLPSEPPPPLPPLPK
CDK12 (aa686-1082)/Cyclin K complex, sequence (Q9NYV4 686-1082): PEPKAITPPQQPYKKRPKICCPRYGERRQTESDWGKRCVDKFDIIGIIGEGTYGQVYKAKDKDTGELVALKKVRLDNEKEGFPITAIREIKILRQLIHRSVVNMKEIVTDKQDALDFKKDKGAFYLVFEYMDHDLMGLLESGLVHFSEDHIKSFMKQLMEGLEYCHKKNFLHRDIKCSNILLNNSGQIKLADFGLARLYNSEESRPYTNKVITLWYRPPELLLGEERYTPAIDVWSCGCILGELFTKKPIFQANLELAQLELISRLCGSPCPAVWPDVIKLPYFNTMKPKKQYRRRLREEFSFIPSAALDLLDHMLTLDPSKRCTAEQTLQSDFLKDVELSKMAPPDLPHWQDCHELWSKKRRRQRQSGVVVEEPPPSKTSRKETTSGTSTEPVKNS
CDK12 (aa686-1082)/Cyclin K complex, sequence (O75909 whole entry partner, the tested form may be a part): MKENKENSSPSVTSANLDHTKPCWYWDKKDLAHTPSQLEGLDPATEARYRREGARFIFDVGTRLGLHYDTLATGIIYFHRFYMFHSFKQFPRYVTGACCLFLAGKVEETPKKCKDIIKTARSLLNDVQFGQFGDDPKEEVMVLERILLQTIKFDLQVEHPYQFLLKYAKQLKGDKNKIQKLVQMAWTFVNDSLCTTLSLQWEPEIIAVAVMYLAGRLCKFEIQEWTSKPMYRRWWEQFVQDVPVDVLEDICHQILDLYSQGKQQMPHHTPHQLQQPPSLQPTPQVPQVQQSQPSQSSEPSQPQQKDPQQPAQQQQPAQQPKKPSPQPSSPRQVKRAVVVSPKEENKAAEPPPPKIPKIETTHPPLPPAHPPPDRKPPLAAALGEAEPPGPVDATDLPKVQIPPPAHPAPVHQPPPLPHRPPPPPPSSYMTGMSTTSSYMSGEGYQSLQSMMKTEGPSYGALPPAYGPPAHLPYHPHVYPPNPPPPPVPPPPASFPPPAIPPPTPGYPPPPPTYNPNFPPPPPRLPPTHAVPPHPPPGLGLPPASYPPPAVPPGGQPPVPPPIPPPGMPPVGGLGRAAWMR

| Structure (SMILES) | IC50 (HCC70 cells) [nM] | IC50 (MB453 cells) [nM] | IC50 (COV504 cells) [nM] | IC50 (COV318 cells) [nM] | IC50 (CDK9/Cyclin T1 complex) [nM] | IC50 [1] [nM] | IC50 (CDK2/Cyclin E1 complex) [nM] | IC50 [2] [nM] |
| --- | --- | --- | --- | --- | --- | --- | --- | --- |
| Cc1nnc(-c2ccc3c(-c4nc(N[C@@H]5CC[C@@H](C)NC5)ncc4C(F)(F)F)c[nH]c3n2)s1 [Compound 158, N-[(3R,6R)-6-methyl-3-piperidyl]-4-[6-(5-methyl-1,3,4-thiadiazol-2-yl)-1H-pyrrolo[2,3-b]pyridin-3-yl]-5-(trifluoromethyl)pyrimidin-2-amine] | < 100 | < 100 | < 100 | 100 to 500 | > 500 | > 500 | > 500 | < 30 |
| CC1(C)CC[C@H](Nc2ncc(C(F)(F)F)c(-c3c[nH]c4cc(-c5nccs5)ccc34)n2)CN1 [Compound 106, (S)—N-(6,6-dimethylpiperidin-3-yl)-4-(6-(thiazol-2-yl)-1H-indol-3-yl)-5-(trifluoromethyl)pyrimidin-2-amine] | < 100 | < 100 | < 100 | 100 to 500 | > 500 | > 500 | > 500 | < 30 |
| Cc1nnc(-c2ccc3c(-c4nc(N[C@H]5CC[C@H](C)NC5)ncc4C(F)(F)F)c[nH]c3n2)s1 [Compound 154, N-[(3S,6S)-6-methyl-3-piperidyl]-4-[6-(5-methyl-1,3,4-thiadiazol-2-yl)-1H-pyrrolo[2,3-b]pyridin-3-yl]-5-(trifluoromethyl)pyrimidin-2-amine] | 100 to 500 | > 1000 | 100 to 500 | > 1000 | > 500 | > 500 | > 500 | < 30 |
| Cc1noc(C)c1-c1ccc2c(-c3nc(N[C@H]4CCCNC4)ncc3C(F)(F)F)c[nH]c2n1 [Compound 101, 4-[6-(3,5-dimethylisoxazol-4-yl)-1H-pyrrolo-[2,3-b]-pyridin-3-yl]-N-[(3S)-3-piperidyl]-5-(trifluoromethyl)pyrimidin-2-amine] | < 100 | < 100 | < 100 | < 100 | > 500 | 100 to 500 | > 500 | < 30 |
| Cc1nnc(-c2ccc3c(-c4nc(N[C@H]5CCCNC5)ncc4C(F)(F)F)c[nH]c3c2)s1 [Compound 123] | 100 to 500 | < 100 | < 100 | 100 to 500 | > 500 | > 500 | > 500 | < 30 |
| Cc1noc(C)c1-c1ccc2c(-c3nc(N[C@@H]4CNC[C@H](C(=O)N(C)C)C4)ncc3C(F)(F)F)c[nH]c2n1 [Compound 119, (3R,5S)-5-[[4-[6-(3,5-dimethylisoxazol-4-yl)-1H-pyrrolo[2,3-b]pyridin-3-yl]-5-(trifluoromethyl)pyrimidin-2-yl]amino]-N,N-dimethyl-piperidine-3-carboxamide] | < 100 | < 100 | < 100 | > 1000 | > 500 | > 500 | > 500 | < 30 |
| Cc1noc(C)c1-c1ccc2c(-c3nc(N[C@@H]4CNC[C@H](O)C4)ncc3C(F)(F)F)n[nH]c2n1 [Compound 146, (3R, 5S)-5-[[4-[6-(3,5-dimethylisoxazol-4-yl)-1H-pyrazolo[3,4-b]pyridin-3-yl]-5-(trifluoromethyl)pyrimidin-2-yl]amino]piperidin-3-ol] | 500 to 1000 | 100 to 500 | 100 to 500 | > 1000 | > 500 | > 500 | > 500 | < 30 |
| Cc1nc(-c2ccc3c(-c4nc(N[C@H]5CC[C@H](C)NC5)ncc4C(F)(F)F)n[nH]c3n2)no1 [Compound 167, 4-[6-(5-methyl-1,2,4-oxadiazol-3-yl)-1H-pyrazolo[3,4-b]pyridin-3-yl]-N-[(3S,6S)-6-methyl-3-piperidyl]-5-(trifluoromethyl)pyrimidin-2-amine] | < 100 | 100 to 500 | < 100 | 100 to 500 | > 500 | > 500 | > 500 | < 30 |
| Cc1ncoc1-c1ccc2c(-c3nc(N[C@H]4CCCNC4)ncc3C(F)(F)F)c[nH]c2n1 [Compound 161, 4-[6-(4-methyloxazol-5-yl)-1H-pyrrolo[2,3-b]pyridin-3-yl]-N-[(3S)-3-piperidyl]-5-(trifluoromethyl)pyrimidin-2-amine] | < 100 | < 100 | < 100 | 100 to 500 | > 500 | > 500 | > 500 | < 30 |
| C[C@@H]1CC[C@@H](Nc2ncc(C(F)(F)F)c(-c3c[nH]c4nc(-c5nnnn5C)ccc34)n2)CN1 [Compound 164, N-[(3R, 6R)-6-methyl-3-piperidyl]-4-[6-(1-methyltetrazol-5-yl)-1H-pyrrolo[2,3-b]pyridin-3-yl]-5-(trifluoromethyl)pyrimidin-2-amine] | 100 to 500 | < 100 | < 100 | 500 to 1000 | > 500 | > 500 | > 500 | < 30 |
| FC(F)(F)c1cnc(N[C@H]2CCCNC2)nc1-c1c[nH]c2nc(-c3nccs3)ccc12 [Compound 108] | < 100 | < 100 | < 100 | < 100 | > 500 | > 500 | > 500 | < 30 |
| CO[C@@H]1CCNC[C@H]1Nc1ncc(C(F)(F)F)c(-c2c[nH]c3nc(-c4c(C)noc4C)ccc23)n1 (single isomer, unassigned) [Compound 117] | 100 to 500 | < 100 | < 100 | 500 to 1000 | > 500 | > 500 | > 500 | < 30 |
| FC(F)(F)c1cnc(N[C@H]2CCCNC2)nc1-c1c[nH]c2cc(-c3ncco3)ccc12 [Compound 110, (S)-4-(6-(oxazol-2-yl)-1H-indol-3-yl)-N-(piperidin-3-yl)-5-(trifluoromethyl)pyrimidin-2-amine] | < 100 | < 100 | < 100 | 100 to 500 | > 500 | > 500 | > 500 | < 30 |
| CNC(=O)[C@H]1CNC[C@@H](Nc2ncc(C(F)(F)F)c(-c3c[nH]c4nc(-c5nccs5)ccc34)n2)C1 [Compound 145, (3R, 5S)—N-methyl-5-[[4-(6-thiazol-2-yl-1H-pyrrolo[2,3-b]pyridin-3-yl)-5-(trifluoromethyl)pyrimidin-2-yl]amino]piperidine-3-carboxamide] | 100 to 500 | 100 to 500 | 100 to 500 | > 1000 | > 500 | > 500 | > 500 | < 30 |
| Cc1noc(C)c1-c1ccc2c(-c3nc(N[C@@H]4CC[C@@H](C)NC4)ncc3C(F)(F)F)c[nH]c2n1 [Compound 125, 4-[6-(3,5-dimethylisoxazol-4-yl)-1H-pyrrolo-[2,3-b]-pyridin-3-yl]-N-[(3R,6R)-6-methyl-3-piperidyl]-5-(trifluoromethyl)pyrimidin-2-amine] | 100 to 500 | < 100 | < 100 | 100 to 500 | > 500 | > 500 | > 500 | < 30 |
| Cc1nnnn1-c1ccc2c(-c3nc(N[C@H]4CCCNC4)ncc3C(F)(F)F)c[nH]c2n1 [Compound 141, 4-[6-(5-methyltetrazol-1-yl)-1H-pyrrolo[2,3-b]pyridin-3-yl]-N-[(3S)-3-piperidyl]-5-(trifluoromethyl)pyrimidin-2-amine] | 100 to 500 | 100 to 500 | < 100 | 100 to 500 | > 500 | > 500 | > 500 | < 30 |
| Cc1nocc1-c1ccc2c(-c3nc(N[C@@H]4CC[C@@H](C)NC4)ncc3C(F)(F)F)c[nH]c2n1 [Compound 157, 4-[6-(3-methylisoxazol-4-yl)-1H-pyrrolo[2,3-b]pyridin-3-yl]-N-[(3R,6R)-6-methyl-3-piperidyl]-5-(trifluoromethyl)pyrimidin-2-amine] | < 100 | < 100 | < 100 | < 100 | > 500 | > 500 | > 500 | < 30 |
| Cc1noc(C)c1-c1ccc2c(-c3nc(N[C@H]4CCCNC4)ncc3C(F)(F)F)n[nH]c2c1 [Compound 100, 4-[6-(3,5-dimethylisoxazol-4-yl)-1H-indazol-3-yl]-N-[(3S)-3-piperidyl]-5-(trifluoromethyl)pyrimidin-2-amine] | < 100 | < 100 | < 100 | 100 to 500 | > 500 | > 500 | > 500 | < 30 |
